From patent publication US10202361B2, “Pyridazinones as herbicides” (E I DU PONT DE NEMOURS AND COMPANY, priority 2014, dated 2019)

Assays:
Experiment in all cases: Test D pre-/postemergence controlled growth environment herbicide test
Assay type in all cases: in vivo
Conditions in all cases: scale 0 to 100
[1] = tested on: canarygrass (Phalaris minor)
Description: (§1) Seeds of plant species selected from bluegrass (annual bluegrass, Poa annua), blackgrass (Alopecurus myosuroides), canarygrass (Phalaris minor), chickweed (common chickweed, Stellaria media), galium (catchweed bedstraw, Galium aparine), downy bromegrass (Bromus tectorum), field poppy (Papaver rhoeas), field violet (Viola arvensis), foxtail, green (green foxtail, Setaria viridis), deadnettle (henbit deadnettle, Lamium amplexicaule), ryegrass, Italian (Italian ryegrass, Lolium multiflorum), kochia (Kochia scoparia), lambsquarters (Chenopodium album), oilseed rape (Brassica napus), pigweed (Amaranthus retroflexus), chamomile (scentless chamomile, Matricaria inodora), Russian thistle (Salsola kali), speedwell (bird's-eye speedwell, Veronica persica), barley, spring (spring barley, Hordeum vulgare), wheat, spring (spring wheat, Triticum aestivum), buckwheat, wild (wild buckwheat, Polygonum convolvulus), mustard, wild (wild mustard, Sinapis arvensis), oat, wild (wild oat, Avena fatua), radish, wild (wild radish, Raphanus raphanistrum), windgrass (Apera spica-venti), barley, winter (winter barley, Hordeum vulgare), and wheat, winter (winter wheat, Triticum aestivum) were planted into a silt loam soil and treated preemergence with test chemicals formulated in a non-phytotoxic solvent mixture which included a surfactant.
(§2) At the same time, these species were planted in pots containing Redi-Earth® planting medium (Scotts Company, 14111 Scottslawn Road, Marysville, Ohio 43041) comprising spaghnum peat moss, vermiculite, wetting agent and starter nutrients and treated with postemergence applications of the test chemicals formulated in the same manner. Plants ranged in height from 2 to 18 cm (1- to 4-leaf stage). Treated plants and controls were maintained in a controlled growth environment for 14 to 21 d after which time all species were compared to controls and visually evaluated. Plant response ratings, summarized in Table D, are based on a scale of 0 to 100 where 0 is no effect and 100 is complete control. A dash (-) response means no test result.

[2] = tested on: field poppy (Papaver rhoeas)
Description: as §1, §2

[3] = tested on: chickweed (common chickweed, Stellaria media)
Description: as §1, §2

[4] = tested on: deadnettle (henbit deadnettle, Lamium amplexicaule)
Description: as §1, §2

[5] = tested on: oat, wild (wild oat, Avena fatua)
Description: as §1, §2

[6] = tested on: lambsquarters (Chenopodium album)
Description: as §1, §2

[7] = tested on: foxtail, green (green foxtail, Setaria viridis)
Description: as §1, §2

kochia (Kochia scoparia) = tested on: kochia (Kochia scoparia)
Description: as §1, §2

[8] = tested on: blackgrass (Alopecurus myosuroides)
Description: as §1, §2

[9] = tested on: barley, winter (winter barley, Hordeum vulgare)
Description: as §1, §2

[10] = tested on: bluegrass (annual bluegrass, Poa annua)
Description: as §1, §2

COc1cc(=O)n(-c2ccc(F)cc2)nc1Cc1ccnc(C(F)(F)F)c1 [Compound 17, 2-(4-fluorophenyl)-5-methoxy-6-[[2-(trifluoromethyl)-4-pyridinyl]methyl]-3 (2H)-pyridazinone]
Plant response rating ([1]; Postemergence, 31 g ai/ha): 10 | Plant response rating ([1]; Postemergence, 62 g ai/ha): 20 | Plant response rating ([1]; Postemergence, 125 g ai/ha): 20 | Plant response rating ([1]; Postemergence, 250 g ai/ha): 30 | Plant response rating ([1]; Postemergence, 500 g ai/ha): 35 | Plant response rating ([1]; Preemergence, 31 g ai/ha): 0 | Plant response rating ([1]; Preemergence, 62 g ai/ha): 0 | Plant response rating ([1]; Preemergence, 125 g ai/ha): 10 | Plant response rating ([1]; Preemergence, 250 g ai/ha): 30 | Plant response rating ([1]; Preemergence, 500 g ai/ha): 50 | Plant response rating ([2]; Postemergence, 31 g ai/ha): 50 | Plant response rating ([2]; Postemergence, 62 g ai/ha): 75 | Plant response rating ([2]; Postemergence, 125 g ai/ha): 75 | Plant response rating ([2]; Postemergence, 250 g ai/ha): 90 | Plant response rating ([2]; Postemergence, 500 g ai/ha): 100 | Plant response rating ([2]; Preemergence, 31 g ai/ha): 100 | Plant response rating ([2]; Preemergence, 62 g ai/ha): 100 | Plant response rating ([2]; Preemergence, 125 g ai/ha): 100 | Plant response rating ([2]; Preemergence, 250 g ai/ha): 100 | Plant response rating ([2]; Preemergence, 500 g ai/ha): 100 | Plant response rating ([3]; Postemergence, 31 g ai/ha): 10 | Plant response rating ([3]; Postemergence, 62 g ai/ha): 40 | Plant response rating ([3]; Postemergence, 125 g ai/ha): 60 | Plant response rating ([3]; Postemergence, 250 g ai/ha): 100 | Plant response rating ([3]; Postemergence, 500 g ai/ha): 100 | Plant response rating ([3]; Preemergence, 31 g ai/ha): 100 | Plant response rating ([3]; Preemergence, 62 g ai/ha): 100 | Plant response rating ([3]; Preemergence, 125 g ai/ha): 100 | Plant response rating ([3]; Preemergence, 250 g ai/ha): 100 | Plant response rating ([3]; Preemergence, 500 g ai/ha): 100 | Plant response rating ([4]; Postemergence, 31 g ai/ha): 50 | Plant response rating ([4]; Postemergence, 62 g ai/ha): 50 | Plant response rating ([4]; Postemergence, 125 g ai/ha): 65 | Plant response rating ([4]; Postemergence, 250 g ai/ha): 98 | Plant response rating ([4]; Postemergence, 500 g ai/ha): 100 | Plant response rating ([4]; Preemergence, 31 g ai/ha): 100 | Plant response rating ([4]; Preemergence, 62 g ai/ha): 100 | Plant response rating ([4]; Preemergence, 125 g ai/ha): 100 | Plant response rating ([4]; Preemergence, 250 g ai/ha): 100 | Plant response rating ([4]; Preemergence, 500 g ai/ha): 100 | Plant response rating ([5]; Postemergence, 31 g ai/ha): 10 | Plant response rating ([5]; Postemergence, 62 g ai/ha): 10 | Plant response rating ([5]; Postemergence, 125 g ai/ha): 10 | Plant response rating ([5]; Postemergence, 250 g ai/ha): 20 | Plant response rating ([5]; Postemergence, 500 g ai/ha): 50 | Plant response rating ([5]; Preemergence, 31 g ai/ha): 0 | Plant response rating ([5]; Preemergence, 62 g ai/ha): 0 | Plant response rating ([5]; Preemergence, 125 g ai/ha): 50 | Plant response rating ([5]; Preemergence, 250 g ai/ha): 75 | Plant response rating ([5]; Preemergence, 500 g ai/ha): 85 | Plant response rating ([6]; Postemergence, 31 g ai/ha): 10 | Plant response rating ([6]; Postemergence, 62 g ai/ha): 50 | Plant response rating ([6]; Postemergence, 125 g ai/ha): 80 | Plant response rating ([6]; Postemergence, 250 g ai/ha): 95 | Plant response rating ([6]; Postemergence, 500 g ai/ha): 100 | Plant response rating ([6]; Preemergence, 31 g ai/ha): 90 | Plant response rating ([6]; Preemergence, 62 g ai/ha): 95 | Plant response rating ([6]; Preemergence, 250 g ai/ha): 90 | Plant response rating ([6]; Preemergence, 500 g ai/ha): 90 | Plant response rating ([7]; Postemergence, 31 g ai/ha): 10 | Plant response rating ([7]; Postemergence, 62 g ai/ha): 10 | Plant response rating ([7]; Postemergence, 125 g ai/ha): 15 | Plant response rating ([7]; Postemergence, 250 g ai/ha): 30 | Plant response rating ([7]; Postemergence, 500 g ai/ha): 80 | Plant response rating ([7]; Preemergence, 31 g ai/ha): 15 | Plant response rating ([7]; Preemergence, 62 g ai/ha): 95 | Plant response rating ([7]; Preemergence, 125 g ai/ha): 100 | Plant response rating ([7]; Preemergence, 250 g ai/ha): 100 | Plant response rating ([7]; Preemergence, 500 g ai/ha): 100 | Plant response rating (kochia (Kochia scoparia); Postemergence, 31 g ai/ha): 25 | Plant response rating (kochia (Kochia scoparia); Postemergence, 62 g ai/ha): 60 | Plant response rating (kochia (Kochia scoparia); Postemergence, 125 g ai/ha): 70 | Plant response rating (kochia (Kochia scoparia); Postemergence, 250 g ai/ha): 80 | Plant response rating (kochia (Kochia scoparia); Postemergence, 500 g ai/ha): 90 | Plant response rating (kochia (Kochia scoparia); Preemergence, 31 g ai/ha): 100 | Plant response rating (kochia (Kochia scoparia); Preemergence, 62 g ai/ha): 100 | Plant response rating (kochia (Kochia scoparia); Preemergence, 125 g ai/ha): 100 | Plant response rating (kochia (Kochia scoparia); Preemergence, 250 g ai/ha): 100 | Plant response rating (kochia (Kochia scoparia); Preemergence, 500 g ai/ha): 100 | Plant response rating ([8]; Postemergence, 31 g ai/ha): 10 | Plant response rating ([8]; Postemergence, 62 g ai/ha): 10 | Plant response rating ([8]; Postemergence, 125 g ai/ha): 10 | Plant response rating ([8]; Postemergence, 250 g ai/ha): 20 | Plant response rating ([8]; Postemergence, 500 g ai/ha): 50 | Plant response rating ([8]; Preemergence, 31 g ai/ha): 0 | Plant response rating ([8]; Preemergence, 62 g ai/ha): 10 | Plant response rating ([8]; Preemergence, 125 g ai/ha): 30 | Plant response rating ([8]; Preemergence, 250 g ai/ha): 60 | Plant response rating ([8]; Preemergence, 500 g ai/ha): 90 | Plant response rating ([9]; Postemergence, 31 g ai/ha): 15 | Plant response rating ([9]; Postemergence, 62 g ai/ha): 15 | Plant response rating ([9]; Postemergence, 125 g ai/ha): 25 | Plant response rating ([9]; Postemergence, 250 g ai/ha): 30 | Plant response rating ([9]; Postemergence, 500 g ai/ha): 35 | Plant response rating ([9]; Preemergence, 31 g ai/ha): 10 | Plant response rating ([9]; Preemergence, 62 g ai/ha): 20 | Plant response rating ([9]; Preemergence, 125 g ai/ha): 40 | Plant response rating ([9]; Preemergence, 250 g ai/ha): 75 | Plant response rating ([9]; Preemergence, 500 g ai/ha): 80 | Plant response rating ([10]; Postemergence, 31 g ai/ha): 5 | Plant response rating ([10]; Postemergence, 62 g ai/ha): 5 | Plant response rating ([10]; Postemergence, 125 g ai/ha): 5 | Plant response rating ([10]; Postemergence, 250 g ai/ha): 10 | Plant response rating ([10]; Postemergence, 500 g ai/ha): 20 | Plant response rating ([10]; Preemergence, 31 g ai/ha): 0 | Plant response rating ([10]; Preemergence, 62 g ai/ha): 0 | Plant response rating ([10]; Preemergence, 125 g ai/ha): 25 | Plant response rating ([10]; Preemergence, 250 g ai/ha): 60 | Plant response rating ([10]; Preemergence, 500 g ai/ha): 85
